Data taken from US12551573B2, “Compositions and methods for the targeting of PCSK9” (Scribe Therapeutics Inc., priority 2022, dated 2026).

Tested on: human PCSK9 locus
Assay: Secreted PCSK9 by ELISA (normalized to total cell count) in Huh7 cells transfected with mRNA and gRNA
Type: cell-based
Conditions: paired with LTRP5-ADD-ZIM3 mRNA, Huh7 cells, 6 days post-transfection; for Secreted PCSK9: normalized to total cell count; for Percent reduction in PCSK9 secretion: relative to non-targeting gRNA control; for Average percent reduction in PCSK9 secretion: averaged from the two doses
Description: To assess PCSK9 secretion, seeded Huh7 cells were transfected with mRNA encoding a catalytically-active CasX 676, dXR1, or LTRP5-ADD-ZIM3 and a gRNA with scaffold 316 and spacer targeting either the B2M or PCSK9 locus. Media supernatant was harvested at 6, 18, 36, and 87 days post-transfection to assess level of PCSK9 secretion by ELISA. Levels of PCSK9 secretion were normalized to total cell count. As an additional control, PCSK9 secretion was also measured in the media supernatant harvested from wells containing untreated, naïve cells.
The following three human hepatocyte cancer cell lines were used in this experiment: HepG2 cells, Hep3B cells, and Huh7 cells. ˜15,000 cells of each cell line were seeded per well; the next day, seeded cells were transfected with mRNA encoding a catalytically-active CasX 676, dXR1, or LTRP5-ADD-ZIM3 and a gRNA with scaffold 316 and spacer targeting either the B2M or PCSK9 locus (see Table 23 for specific spacers and sequences). Media supernatant was harvested at 4 days post-transfection to assess level of PCSK9 secretion by ELISA, and levels of PCSK9 secretion were normalized to total cell count and illustrated in FIGS. 11A-11C. Culturing of treated Huh7 cells continued, and media supernatant was harvested at 14 and 27 days post-transfection for measuring PCSK9 secretion by ELISA. As an additional experimental control, PCSK9 secretion was also measured in the media supernatant harvested from wells containing untreated, naïve cells.
To assess PCSK9 secretion, seeded Huh7 cells were co-transfected with mRNA encoding for LTRP5-ADD-ZIM3 and a gRNA with scaffold 316 and spacer targeting the PCSK9 locus using Lipofectamine™ 3000. Two doses of total RNA input at a 2:1 mass ratio of mRNA to gRNA were used for screening: 50 ng mRNA: 25 ng gRNA and 25 ng mRNA: 12.5 ng gRNA. Media supernatant was harvested at 6 days post-transfection to assess level of PCSK9 secretion by ELISA (Table 74). Levels of PCSK9 secretion were normalized to total cell count. As an additional control, PCSK9 secretion was also measured in the media supernatant harvested from cells transfected with mRNA encoding for mScarlet.

Row | Substance | Secreted PCSK9 (25 ng mRNA:12.5 ng gRNA) [ng/mL] | Percent reduction in PCSK9 secretion (25 ng mRNA:12.5 ng gRNA) [%] | Secreted PCSK9 (50 ng mRNA:25 ng gRNA) [ng/mL] | Percent reduction in PCSK9 secretion (50 ng mRNA:25 ng gRNA) [%] | Average percent reduction in PCSK9 secretion [%]
1 | UUUUACACACCAUGUUCAAG (listed as RNA, chemistry not given here) [spacer 6.129, Promoter] | 90.82 | 27.47 | 59.93 | 27.16 | 0.16
2 | TG-06-1046 (guide UCUCUUACAUGGGGGGAAAC; listed as RNA, chemistry not given here) | 76.27 | 7.05 | 78.9 | 4.1 | 1.48
3 | GUGCUCGGGUGCUUCGGCCA (listed as RNA, chemistry not given here) [spacer 6.5, Exon 1] | 76.37 | 7.19 | 67.08 | 18.47 | 5.64
4 | AGGAGCAGCUAGUUGGUAAG (listed as RNA, chemistry not given here) [spacer 6.139, Promoter] | 25.45 | 64.28 | 15.03 | 81.73 | 73.01
5 | TG-06-344 (guide CAGUUUCUGCCUCGCCGCGG; listed as RNA, chemistry not given here) | 76.43 | 7.28 | 82.29 | 0.01 | 3.64
6 | TG-06-251 (guide CUCCAGGCCCUCCACCCUCC; listed as RNA, chemistry not given here) | 44.62 | 37.37 | 36.8 | 55.28 | 46.32
7 | UGAACAUGGUGUGUAAAAGG (listed as RNA, chemistry not given here) [spacer 6.131, Promoter] | 57.89 | 18.74 | 28.4 | 65.48 | 42.11
8 | TG-06-343 (guide CCCCAUGUAAGAGAGGAAGU; listed as RNA, chemistry not given here) | 75.55 | 6.04 | 62.8 | 23.67 | 8.82
9 | UCCUCCUGCCUGGUACACAA (listed as RNA, chemistry not given here) [spacer 6.127, Promoter] | 49.1 | 31.08 | 22.57 | 72.56 | 51.82
10 | GUGUUUCCUGGGUCCACCUU (listed as RNA, chemistry not given here) [spacer 6.147, Promoter] | 37.43 | 47.46 | 53.6 | 34.85 | 41.15
11 | GGAAGGGCUGUCGAUACUGG (listed as RNA, chemistry not given here) [spacer 6.121, Promoter] | 37.13 | 47.89 | 28.33 | 65.57 | 56.73
12 | CUCGGAAUCUGCUGUGCAUC (listed as RNA, chemistry not given here) [spacer 6.120, Promoter] | 47.97 | 32.67 | 21.43 | 73.95 | 53.31
13 | TG-06-347 (guide CUCCUUCACCCACCUGUGCC; listed as RNA, chemistry not given here) | 51.83 | 27.24 | 26.55 | 67.73 | 47.49
14 | AGAAAUCAACUGGACAAGCA (listed as RNA, chemistry not given here) [spacer 6.128, Promoter] | 62.29 | 12.57 | 42.21 | 48.7 | 30.63
15 | GCGCGCCCCUUCACGCGCCC (listed as RNA, chemistry not given here) [spacer 6.159, Exon 1] | 80.84 | 13.47 | 53.15 | 35.4 | 10.97
16 | GCCGGGCCCACCUUUUCAGU (listed as RNA, chemistry not given here) [spacer 6.148, Promoter] | 44.77 | 37.16 | 71.46 | 13.15 | 25.15
17 | CGGGGUUGGGAGACCCGGAG (listed as RNA, chemistry not given here) [spacer 6.169, Intron 1] | 62.55 | 12.2 | 66.39 | 19.3 | 15.75
18 | AGAAAGAGCAAGCCUCAUGU (listed as RNA, chemistry not given here) [spacer 6.125, Promoter] | 46.11 | 35.28 | 24.93 | 69.7 | 52.49
19 | GUGGGAAGGUUCGCGGGGUU (listed as RNA, chemistry not given here) [spacer 6.168, Intron 1] | 50.96 | 28.47 | 19.1 | 76.78 | 52.62
20 | UCCCAGUAUCGACAGCCCUU (listed as RNA, chemistry not given here) [spacer 6.123, Promoter] | 51.32 | 27.97 | 30.49 | 62.95 | 45.46
21 | AAACUUAGCCUGGACCCCCU (listed as RNA, chemistry not given here) [spacer 6.140, Promoter] | 59.94 | 15.87 | 61.68 | 25.04 | 20.45
22 | AGAAGAUUCAAUUUGCAAAG (listed as RNA, chemistry not given here) [spacer 6.132, Promoter] | 75.01 | 5.29 | 56.68 | 31.11 | 12.91
